From patent US8357686B2, “Aryl-substituted polycyclic amines, method for the production thereof, and use thereof as a medicament” (Sanofi-Aventis Deutschland GmbH, priority 2004, dated 2013)

System: female NMRI mice
Test: Anorectic effect: cumulative condensed milk consumption in fasted mice
Format: in vivo
Conditions: oral dose 30 mg/kg by gavage after withdrawal of feed for 17 hours, condensed milk offered 30 minutes after administration, consumption determined for 7 hours, compared with vehicle-treated control animals
Description: The anorectic effect was tested on female NMRI mice. After withdrawal of feed for 17 hours, the test product was administered by gavage. The animals were housed singly with free access to drinking water and were offered condensed milk 30 minutes after administration of the product. The condensed milk consumption was determined every half hour for 7 hours, and the general wellbeing of the animals was observed. The measured milk consumption was compared with the vehicle-treated control animals.

| Structure (SMILES) | Reduction in cumulative milk consumption as % of the control [%] |
| --- | --- |
| O=C(Nc1ccc(OC[C@@H]2CCCN3CCCC[C@H]23)cc1)N1CCC(c2ccc(Cl)cc2)CC1 [Example 37] | 24 |
| CCCCOc1ccc(C(=O)Nc2ccc(OC[C@@H]3CCCN4CCCC[C@H]34)cc2)cc1 [Example 2, 4-Butoxy-N-{4-[(1R,9aR)-1-(octahydroquinolizin-1-yl)methoxy]phenyl}-benzamide] | 73 |
